In ChEMBL document CHEMBL6092131, “Synthesis, SAR, and application of JQ1 analogs as PROTACs for cancer therapy” (Bioorg Med Chem, 2024) one finds IC50, DC50 and Kd data, which are given here for eight compounds.

One test concerns BT-549. In words: Antiproliferative activity against human BT-549 cells assessed as reduction in cell viability. Format: functional, cell-based.
The next test is described as follows: cells. To be noted: Homo sapiens, Triple-negative breast cancer cell.
Test [1] has as its target Protein cereblon/CREB-binding protein (Homo sapiens, UniProt Q92793+Q96SW2). As to the kind of experiment: PROTAC activity at CBP/CRBN in human VCaP cells assessed as protein degradation incubated for 24 hrs by Western blot analysis. The format is cell-based.
In test [2] the target is Bromodomain-containing protein 4 (Homo sapiens, UniProt O60885). In words: Binding affinity to BRD4 BD2 (unknown origin) assessed as dissociation constant by SPR assay. (In general: SPR reads the build-up and loss of mass on a sensor chip optically.)
The nature of test [3]: Cytotoxicity against human HAP1 cells assessed as reduction in cell viability measured for 24 hrs by SRB assay. To be noted: HAP1, 24 h. The format is functional, cell-based. On the technique in general: Sulforhodamine B stains cellular protein and so reports cell mass.
The subject of the next test is MDA-MB-231. As to the kind of experiment: Antiproliferative activity against human MDA-MB-231 cells assessed as reduction in cell viability incubated for 72 hrs by MTT assay. The format is functional, cell-based. The settings on record: MDA-MB-231, 72 h. (In general: Tetrazolium dyes change colour on reduction, which living cells bring about.)
Test [4] addresses von Hippel-Lindau disease tumor suppressor/Bromodomain-containing protein 4 (Homo sapiens, UniProt O60885+P40337). As to the kind of experiment: PROTAC activity at VHL/BRD4 in human HeLa cells assessed as protein degradation of BRD4 incubated for 24 hrs by Western blot analysis. Format: cell-based.
For the next test, the system named is MV4-11. As to the kind of experiment: Cytotoxicity against human MV4-11 cells assessed as reduction in cell viability incubated for 72 hrs by cell titer glo assay. The format is functional, cell-based. The settings on record: MV4-11, 72 h.
The target in test [5] is T1, Protein cereblon/Bromodomain-containing protein 4 (Homo sapiens, UniProt O60885+Q96SW2). As to the kind of experiment: PROTAC activity at CRBN/BRD4 in human NAMALVA cells assessed as protein degradation incubated for 6 hrs by Western blot analysis. Format: cell-based.
In test [6] the target is T1, Protein cereblon/Bromodomain-containing protein 4. As to the kind of experiment: PROTAC activity at CRBN/BRD4 in human CA46 cells assessed as protein degradation incubated for 6 hrs by Western blot analysis. Format: cell-based.
For another test, the system named is LNCaP. As to the kind of experiment: Antiproliferative activity against human LNCaP cells assessed as inhibition of cell viability incubated for 48 hrs by CellTiter-Glo assay. The format is functional, cell-based.

T1 sequence (Q96SW2 whole entry, looked up, other chains not shown): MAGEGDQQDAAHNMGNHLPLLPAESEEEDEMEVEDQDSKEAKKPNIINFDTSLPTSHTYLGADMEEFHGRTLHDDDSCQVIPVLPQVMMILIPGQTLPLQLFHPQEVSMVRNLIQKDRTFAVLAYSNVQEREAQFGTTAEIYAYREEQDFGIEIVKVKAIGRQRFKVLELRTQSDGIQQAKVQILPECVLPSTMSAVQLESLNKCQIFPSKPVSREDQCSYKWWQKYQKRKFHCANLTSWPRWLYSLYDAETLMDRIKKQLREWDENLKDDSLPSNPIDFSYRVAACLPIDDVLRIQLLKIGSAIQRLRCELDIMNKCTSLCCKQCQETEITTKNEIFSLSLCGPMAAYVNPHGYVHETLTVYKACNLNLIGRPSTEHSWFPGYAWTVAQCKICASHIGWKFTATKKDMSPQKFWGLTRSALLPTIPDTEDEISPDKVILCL
von Hippel-Lindau disease tumor suppressor/Bromodomain-containing protein 4, sequence (P40337 whole entry, looked up, other chains not shown): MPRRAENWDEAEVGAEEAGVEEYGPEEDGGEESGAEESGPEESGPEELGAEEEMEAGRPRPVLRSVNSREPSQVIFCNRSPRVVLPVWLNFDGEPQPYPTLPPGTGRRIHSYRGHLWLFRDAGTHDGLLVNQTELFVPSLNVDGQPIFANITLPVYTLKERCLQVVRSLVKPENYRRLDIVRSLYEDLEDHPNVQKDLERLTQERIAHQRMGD
Protein cereblon/CREB-binding protein, sequence (Q92793 whole entry): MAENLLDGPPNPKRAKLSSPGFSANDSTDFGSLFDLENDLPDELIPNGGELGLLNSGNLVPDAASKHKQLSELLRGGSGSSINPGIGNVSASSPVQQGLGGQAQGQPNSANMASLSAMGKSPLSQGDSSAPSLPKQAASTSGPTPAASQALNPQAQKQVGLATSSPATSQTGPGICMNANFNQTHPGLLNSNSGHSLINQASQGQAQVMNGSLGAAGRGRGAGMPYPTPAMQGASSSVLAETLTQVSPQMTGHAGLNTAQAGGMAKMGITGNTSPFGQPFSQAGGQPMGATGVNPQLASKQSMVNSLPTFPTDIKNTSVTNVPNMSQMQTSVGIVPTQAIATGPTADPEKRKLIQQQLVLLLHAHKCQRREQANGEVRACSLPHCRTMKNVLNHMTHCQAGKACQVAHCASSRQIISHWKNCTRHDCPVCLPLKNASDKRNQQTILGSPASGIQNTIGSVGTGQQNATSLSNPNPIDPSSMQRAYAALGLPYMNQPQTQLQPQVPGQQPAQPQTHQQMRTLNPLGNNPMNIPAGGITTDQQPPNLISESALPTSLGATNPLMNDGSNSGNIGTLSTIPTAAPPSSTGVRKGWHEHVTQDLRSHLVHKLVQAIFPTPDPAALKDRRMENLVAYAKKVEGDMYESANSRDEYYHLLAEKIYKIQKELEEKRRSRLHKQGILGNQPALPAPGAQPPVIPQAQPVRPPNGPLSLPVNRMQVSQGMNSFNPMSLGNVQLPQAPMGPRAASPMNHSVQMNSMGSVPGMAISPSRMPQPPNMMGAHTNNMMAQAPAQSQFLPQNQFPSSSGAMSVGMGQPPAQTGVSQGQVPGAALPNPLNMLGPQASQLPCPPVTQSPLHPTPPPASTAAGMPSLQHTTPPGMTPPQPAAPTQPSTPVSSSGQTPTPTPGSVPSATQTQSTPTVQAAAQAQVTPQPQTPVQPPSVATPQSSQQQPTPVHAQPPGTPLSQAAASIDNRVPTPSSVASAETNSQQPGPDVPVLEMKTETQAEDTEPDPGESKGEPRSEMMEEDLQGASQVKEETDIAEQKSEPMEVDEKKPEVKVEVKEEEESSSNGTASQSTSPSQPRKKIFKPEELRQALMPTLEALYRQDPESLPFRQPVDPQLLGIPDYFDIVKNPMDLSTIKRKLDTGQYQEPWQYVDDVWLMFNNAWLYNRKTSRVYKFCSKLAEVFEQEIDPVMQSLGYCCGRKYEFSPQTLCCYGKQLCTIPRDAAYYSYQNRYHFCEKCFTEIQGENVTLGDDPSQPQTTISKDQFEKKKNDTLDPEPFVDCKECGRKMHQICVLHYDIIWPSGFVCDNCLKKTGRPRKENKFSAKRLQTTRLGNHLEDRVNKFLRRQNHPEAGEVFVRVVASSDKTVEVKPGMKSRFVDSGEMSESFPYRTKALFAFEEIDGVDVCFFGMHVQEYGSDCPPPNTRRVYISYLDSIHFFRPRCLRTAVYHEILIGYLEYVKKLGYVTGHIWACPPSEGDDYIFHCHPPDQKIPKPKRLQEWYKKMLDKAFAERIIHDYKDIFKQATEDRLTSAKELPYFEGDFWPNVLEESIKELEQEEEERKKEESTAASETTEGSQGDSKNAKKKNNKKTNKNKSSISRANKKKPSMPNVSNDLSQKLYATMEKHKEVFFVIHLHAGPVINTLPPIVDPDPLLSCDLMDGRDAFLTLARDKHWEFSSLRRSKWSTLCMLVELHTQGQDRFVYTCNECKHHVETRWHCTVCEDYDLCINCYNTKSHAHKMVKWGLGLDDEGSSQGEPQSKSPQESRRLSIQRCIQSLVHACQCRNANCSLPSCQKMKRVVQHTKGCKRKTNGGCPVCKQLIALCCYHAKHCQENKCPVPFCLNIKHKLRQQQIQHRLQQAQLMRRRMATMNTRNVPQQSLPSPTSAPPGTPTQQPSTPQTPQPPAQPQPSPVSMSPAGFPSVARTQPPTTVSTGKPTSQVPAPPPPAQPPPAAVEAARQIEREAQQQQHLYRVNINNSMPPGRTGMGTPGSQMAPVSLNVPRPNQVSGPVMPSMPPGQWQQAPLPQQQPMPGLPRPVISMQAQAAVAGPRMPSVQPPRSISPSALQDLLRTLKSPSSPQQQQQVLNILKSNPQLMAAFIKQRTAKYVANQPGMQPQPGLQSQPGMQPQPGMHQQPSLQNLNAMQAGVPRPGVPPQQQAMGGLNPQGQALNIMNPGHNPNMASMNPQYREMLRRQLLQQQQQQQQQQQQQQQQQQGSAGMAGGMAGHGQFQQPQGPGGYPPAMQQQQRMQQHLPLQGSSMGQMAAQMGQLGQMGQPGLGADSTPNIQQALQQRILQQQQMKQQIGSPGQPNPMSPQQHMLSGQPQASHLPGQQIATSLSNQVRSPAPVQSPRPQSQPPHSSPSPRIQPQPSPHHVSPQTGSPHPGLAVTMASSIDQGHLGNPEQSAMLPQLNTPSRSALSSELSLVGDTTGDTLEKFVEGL
Protein cereblon/CREB-binding protein, sequence (Q96SW2 whole entry): as the sequence (Q96SW2 whole entry, looked up, other chains not shown) above
Description for cells: Antiproliferative activity against human Triple-negative breast cancer cell

Broadly, the IC50 is the concentration needed to halve the response being measured. With `Cc1sc2c(c1C)C(c1ccc(Cl)cc1)=N[C@@H](CC(=O)OC(C)(C)C)c1nnc(C)n1-2`, the IC50 in the test with BT-549 is 5200 nM; in the test “cells” it was 9900 nM.
One may read the DC50 as the concentration at which degradation of the target reaches its halfway point. Consider `Cc1ncsc1-c1ccc([C@H](C)NC(=O)[C@@H]2C[C@@H](O)CN2C(=O)[C@@H](NC(=O)COCCCOCCNC(=O)C[C@@H]2N=C(c3ccc(Cl)cc3)c3c(sc(C)c3C)-n3c(C)nnc32)C(C)(C)C)cc1`, for which the half-maximal degradation concentration (DC50) in test [1] turned out to be 5 nM.
Usually Kd stands for the concentration at which binding is half-saturated. `CC(=O)N[C@H](C(=O)N1C[C@H](O)C[C@H]1C(=O)NCc1ccc(-c2scnc2C)cc1)C(C)(C)SCCCCCCNC(=O)C[C@@H]1N=C(c2ccc(Cl)cc2)c2c(sc(C)c2C)-n2c(C)nnc21`: in test [2], the dissociation constant (Kd) turned out to be 4.4 nM.
Take `Cc1sc2c(c1C)C(c1ccc(Cl)cc1)=N[C@@H](CC(=O)NCCCCOc1ccc(C3CC(c4ccc(Br)cc4)=NN3C(=O)CCl)cc1)c1nnc(C)n1-2` (stereo partly specified): the IC50 in [3] stood at 470 nM.
As for `Cc1sc2c(c1C)C(c1ccc(Cl)cc1)=N[C@@H](CC(=O)NCCCCOc1ccc(Oc3ccc(N(Cc4ccccc4)C(=O)CCl)cc3)cc1)c1nnc(C)n1-2`, in the test with MDA-MB-231, the half-inhibitory concentration (IC50) was 540 nM.
For the compound `Cc1ncsc1-c1ccc2c(c1)OCCOCCOC[C@@H](NC(=O)C[C@@H]1N=C(c3ccc(Cl)cc3)c3c(sc(C)c3C)-n3c(C)nnc31)COCCOCCOCC(=O)N[C@@H](C(C)(C)C)C(=O)N1C[C@H](O)C[C@H]1C(=O)NC2`, the 50% degradation concentration (DC50) in test [4] was 640 nM. Further, the half-inhibitory concentration (IC50) in the test with MV4-11 is 300 nM.
In the case of `Cc1sc2c(c1C)C(c1ccc(Cl)cc1)=N[C@@H](CC(=O)Nc1ccc(OCCOCCOCCOCCCc3cccc4c3C(=O)N(C3CCC(=O)NC3=O)C4=O)cc1)c1nnc(C)n1-2` (stereo partly specified), the 50% degradation concentration (DC50) in test [5] and in test [6] was < 1 nM each time.
Turning to `CN[C@@H](C)C(=O)N[C@H](C(=O)N1CCC[C@H]1c1nc(C(=O)c2cccc(OCCOCCOCCOCCNC(=O)C[C@@H]3N=C(c4ccc(Cl)cc4)c4c(sc(C)c4C)-n4c(C)nnc43)c2)cs1)C1CCCCC1`, the IC50 in the test with LNCaP stood at 77 nM.
